Data on 16 compounds can be found in US8501755B2, “Tetrahydropyridothienopyrimidine compounds and methods of use thereof” (Bayer Intellectual Property GmbH, priority 2006, dated 2013).

Broadly, the IC50 is the concentration at which inhibition is half-maximal.

A value given as a limit tells only on which side of the number the result lay.

Common to all, as to type: cell-based
One assay concerns N87. As to the kind of experiment: In vitro tumor cell proliferation assay (Cell Titer-Glo) in N87 cells. Particulars: N87 human gastric carcinoma overexpressing HER2 and HER1; 72 hours exposure; read-out: IC50, activities in N87 cell lines. The method in brief:
(§1)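 Viability after 72 h drug exposure at 37 °C was read as CellTiter-Glo ATP luminescence, giving IC50. Cells (2.5×10^3/well, RPMI + 10% FBS) were compound-treated one day post-seeding, 0.1% DMSO final: A431 overexpresses HER1, N87 overexpresses HER2 and HER1.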
In general terms: In ATP-based viability assays light output follows the ATP content of the culture.

For a further assay, the system named is H1975 cells. Description: In vitro tumor cell proliferation assay (Cell Titer-Glo) in H1975 cells. The note with it: NCI-H1975; H1975 human NSCLC expressing mutant HER1 (L858R,T790M); 72 hours exposure; read-out: IC50, activities in H 1975 cell lines. The method in brief:
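After 72 h compound exposure at 37° C (top 10 uM down to 64 pM, 0.1% DMSO), viability of EGFR L858R/T790M-mutant H1975 cells was read as ATP luminescence.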

The subject of the next assay is A431 cells. As to the kind of experiment: In vitro tumor cell proliferation assay (Cell Titer-Glo) in A431 cells. Particulars: Homo sapiens, A-431, 72 h, A431 human epidermoid carcinoma overexpressing HER1; 72 hours exposure; read-out: IC50, activities in A431 cell lines. The method in brief:
as §1

As for `CN(C)C/C=C/C(=O)N1CCc2c(sc3ncnc(Nc4ccc5c(cnn5Cc5ccccn5)c4)c23)C1` [Example 109, 7-[(2E)-4-(dimethylamino)but-2-enoyl]-N-[1-(pyridin-2-ylmethyl)-1H-indazol-5-yl]-5,6,7,8-tetrahydropyrido [4′,3′:4,5]thieno[2,3-d]pyrimidin-4-amine], the figures for the IC50 in the assay with N87, with H1975 cells and in the assay with A431 cells were < 200 nM, 200 to 1000 nM and 200 to 1000 nM, respectively.

As for `CCN(CC)C/C=C/C(=O)N1CCc2c(sc3ncnc(Nc4ccc5c(cnn5Cc5ccccn5)c4)c23)C1` [Example 111, 7-[(2E)-4-(diethylamino)but-2-enoyl]-N-[1-(pyridin-2-ylmethyl)-1H-indazol-5-yl]-5,6,7,8-tetrahydropyrido [4′,3′:4,5]thieno[2,3-d]pyrimidin-4-amine], the IC50 in the assay with N87 was < 200 nM; in the assay with H1975 cells it was 200 to 1000 nM; in the assay on A431 cells it was 200 to 1000 nM.

On to `O=C(/C=C/CN1CCCCC1)N1CCc2c(sc3ncnc(Nc4ccc5c(cnn5Cc5ccccn5)c4)c23)C1` [Example 112, 7-[(2E)-4-piperidin-1-ylbut-2-enoy]-N-[1-(pyridin-2-ylmethyl)-1H-indazol-5-yl]-5,6,7,8-tetrahydropyrido [4′,3′:4,5]thieno[2,3-d]pyrimidin-4-amine], for which the IC50 was < 200 nM with N87, 200 to 1000 nM in the assay on H1975 cells and 200 to 1000 nM in the assay on A431 cells.

Take `O=C(/C=C/CN1CCOCC1)N1CCc2c(sc3ncnc(Nc4ccc5c(cnn5Cc5ccccn5)c4)c23)C1` [Example 113, 7-[(2E)-4-morpholin-4-ylbut-2-enoyl]-N-[1-(pyridin-2-ylmethyl)-1H-indazol-5-yl]-5,6,7,8-tetrahydropyrido [4′,3′:4,5]thieno[2,3-d]pyrimidin-4-amine]: the IC50 with N87 is < 200 nM; in the assay with H1975 cells, 200 to 1000 nM; in the assay with A431 cells, 200 to 1000 nM.

`O=C(/C=C/CN1CCCCC1)N1CCc2c(sc3ncnc(Nc4ccc5c(ccn5Cc5ccccn5)c4)c23)C1` [Example 114, 7-[(2E)-4-piperidin-1-ylbut-2-enoyl]-N-[1-(pyridin-2-ylmethyl)-1H-indol-5-yl]-5,6,7,8-tetrahydropyrido [4′,3′:4,5]thieno[2,3-d]pyrimidin-4-amine]: the IC50 in the assay with N87, in the assay with H1975 cells and in the assay with A431 cells was < 200 nM each time.

As to `CCN(C)C/C=C/C(=O)N1CCc2c(sc3ncnc(Nc4ccc5c(cnn5Cc5cccc(F)c5)c4)c23)C1` [Example 115, 7-{(2E)-4-[ethyl(methyl)amino]but-2-enoyl}-N-[1-(3-fluorobenzyl)-1H-indazol-5-yl]-5,6,7,8-tetrahydropyrido [4′,3′:4,5]thieno[2,3-d]pyrimidin-4-amine], the IC50 in the assay on N87, with H1975 cells and in the assay on A431 cells was < 200 nM each time.

In the case of `CC(C)N(C)C/C=C/C(=O)N1CCc2c(sc3ncnc(Nc4ccc5c(cnn5Cc5ccccn5)c4)c23)C1` [Example 116, 7-{(2E)-4-[isopropyl(methyl)amino]but-2-enoyl}-N-[1-(pyridin-2-ylmethyl)-1H-indazol-5-yl]-5,6,7,8-tetrahydropyrido [4′,3′:4,5] thieno[2,3-d]pyrimidin-4-amine], the IC50 in the assay with N87 was < 200 nM; in the assay on H1975 cells it was 200 to 1000 nM; in the assay on A431 cells, 200 to 1000 nM.

With `CC(C)N(C)C/C=C/C(=O)N1CCc2c(sc3ncnc(Nc4ccc5c(ccn5Cc5ccccn5)c4)c23)C1` [Example 117, 7-{(2E)-4-[isopropyl(methyl)amino]but-2-enoyl}-N-[1-(pyridin-2-ylmethyl)-1H-indol-5-yl]-5,6,7,8-tetrahydropyrido [4′,3′:4,5]thieno[2,3-d]pyrimidin-4-amine], the IC50 with N87 is < 200 nM; in the assay with H1975 cells, < 200 nM; with A431 cells, 200 to 1000 nM.

For `CC(C)N(C)C/C=C/C(=O)N1CCc2c(sc3ncnc(Nc4ccc5c(ccn5Cc5ccccc5)c4)c23)C1` [Example 118, N-(1-benzyl-1H-indol-5-yl)-7-{(2E)-4-[isopropyl(methyl)amino]but-2-enoyl}-5,6,7,8-tetrahydropyrido [4′,3′:4,5]thieno[2,3-d]pyrimidin-4-amine], the IC50 with N87, in the assay with H1975 cells and in the assay with A431 cells was < 200 nM in each case.

Take `CCN(CC)C/C=C/C(=O)N1CCc2c(sc3ncnc(Nc4ccc5c(ccn5Cc5ccccn5)c4)c23)C1` [Example 121, 7-[(2E)-4-(diethylamino)but-2-enoyl]-N-[1-(pyridin-2-ylmethyl)-1H-indol-5-yl]-5,6,7,8-tetrahydropyrido [4′,3′:4,5]thieno[2,3-d]pyrimidin-4-amine]: the half-inhibitory concentration (IC50) is < 200 nM with N87, 200 to 1000 nM with H1975 cells and 200 to 1000 nM in the assay with A431 cells.

For the compound `CC(C)N(C)C/C=C/C(=O)N1CCc2c(sc3ncnc(Nc4ccc5c(ccn5Cc5cccc(F)c5)c4)c23)C1` [Example 122, N-[1-(3-fluorobenzyl)-1H-indol-5-yl]-7-{(2E)-4-[isopropyl(methyl)amino]but-2-enoyl}-5,6,7,8-tetrahydropyrido [4′,3′:4,5]thieno[2,3-d]pyrimidin-4-amine], the results for the IC50 in the assay on N87, in the assay with H1975 cells and in the assay on A431 cells were < 200 nM, < 200 nM and 200 to 1000 nM, respectively.

For the compound `CC(C)N(C)C/C=C/C(=O)N1CCc2c(sc3ncnc(Nc4ccc5c(cnn5Cc5cccc(F)c5)c4)c23)C1` [Example 123, N-[1-(3-fluorobenzyl)-1H-indazol-5-yl]-7-{(2E)-4-[isopropyl(methyl)amino]but-2-enoyl}-5,6,7,8-tetrahydropyrido [4′,3′:4,5]thieno[2,3-d]pyrimidin-4-amine], the IC50 in the assay with N87, with H1975 cells and with A431 cells was < 200 nM each time.

Regarding `CN(C/C=C/C(=O)N1CCc2c(sc3ncnc(Nc4ccc5c(cnn5Cc5cccc(F)c5)c4)c23)C1)C(C)(C)C` [Example 124, 7-{(2E)-4-[tert-butyl(methyl)amino]but-2-enoyl}-N-[1-(3-fluorobenzyl)-1H-indazol-5-yl]-5,6,7,8-tetrahydropyrido [4′,3′:4,5]thieno[2,3-d]pyrimidin-4-amine], the IC50 with N87, in the assay on H1975 cells and with A431 cells was < 200 nM each time.

As to `CN(C/C=C/C(=O)N1CCc2c(sc3ncnc(Nc4ccc5c(ccn5Cc5cccc(F)c5)c4)c23)C1)C(C)(C)C` [Example 125, 7-{(2E)-4-[tert-butyl(methyl)amino]but-2-enoyl}-N-[1-(3-fluorobenzyl)-1H-indol-5-yl]-5,6,7,8-tetrahydropyrido [4′,3′:4,5]thieno[2,3-d]pyrimidin-4-amine], the half-inhibitory concentration (IC50) in the assay with N87 was < 200 nM; with H1975 cells, 200 to 1000 nM; in the assay on A431 cells it was 200 to 1000 nM.

Turning to `CN(C/C=C/C(=O)N1CCc2c(sc3ncnc(Nc4ccc5c(cnn5Cc5ccccc5)c4)c23)C1)C(C)(C)C` [Example 126, N-(1-benzyl-1H-indazol-5-yl)-7-{(2E)-4-[tert-butyl(methyl)amino]but-2-enoyl}-5,6,7,8-tetrahydropyrido [4′,3′:4,5]thieno[2,3-d]pyrimidin-4-amine], the IC50 with N87, in the assay on H1975 cells and with A431 cells was < 200 nM throughout.

On to `CCN(C)C/C=C/C(=O)N1CCc2c(sc3ncnc(Nc4ccc5c(ccn5Cc5ccccn5)c4)c23)C1` [Example 127, 7-{(2E)-4-[ethyl(methyl)amino]but-2-enoyl}-N-[l-(pyridin-ylmethyl)1H-indol-5-yl]-5,6,7,8-tetrahydropyrido [4′,3′:4,5]thieno[2,3-d]pyrimidin-4-amine], for which the IC50 in the assay with N87 is < 200 nM; in the assay on H1975 cells, 200 to 1000 nM; in the assay on A431 cells, 200 to 1000 nM.
